Reference: EP3928779A1 (Chugai Seiyaku Kabushiki Kaisha, priority 2014, dated 2016)

What was measured:
[1] = system: rat small-intestinal brush border membrane vesicles; assay: Inhibitory effect on 33PO4 uptake into rat small-intestinal brush border membrane vesicles (rapid filtration method); format: biochemical; conditions: 33PO4 uptake into rat small-intestinal BBMVs; test compound 1 µM; reacted for 60 seconds
How it was run: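 Uptake of ^33PO4 was measured by rapid filtration and liquid scintillation counting of filter-retained vesicles, after quenching with ice-cold 110 mM NaCl/1 mM KH2PO4/10 mM HEPES pH 7.5. Vesicles were brush border membranes from the upper small intestine of female Wistar rats aged 4–5 weeks.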

[2] = system: adenine-induced renal failure rat; assay: Suppressive effect on rise in serum phosphorus concentration of adenine-induced renal failure rat (0.1% in feed, 3 days); format: in vivo; conditions: feed or water, 72 h, adenine-induced renal failure Wistar male rat, test compound 0.1% of mass concentration in feed for 3 days, Fiske-Subbarow method, read-out: rate (%) of suppression of a rise in serum phosphorus concentration
Description: Adenine was forcedly administered orally to each Wistar male rat (7-8 weeks old) to impair renal functions and thereby prepare a hyperphosphatemia model ([…], Nagano N, Burke SK, Fukushima N. Sevelamer hydrochloride prevents ectopic calcification and renal osteodystrophy in chronic renal failure rats. Kidney Int. 2003 Aug; 64 (2): 441-50). Each test compound was mixed at a ratio of 0.1% of mass concentration with feed. The animal was fed with a given amount of the feed for 3 days. A group given feed non-supplemented with a test compound was used as a reference pathological group, and an adenine-unadministered group given feed non-supplemented with a test compound was used as a normal group. 3 days after the start of administration of the test compound, blood was collected from the jugular vein, and serum was collected. Serum phosphorus concentrations were measured by the Fiske-Subbarow method. The rate of suppression of a rise in serum phosphorus concentration was determined according to the following expression: Rate (%) of suppression of a rise in serum phosphorus concentration = (1-[(Serum phosphorus concentration of the test compound-treated pathological group)-(Serum phosphorus concentration of the normal group)]/[(Serum phosphorus concentration of the reference pathological group)-(Serum phosphorus concentration of the normal group)]) × 100 [formula] As a result, each test compound was confirmed to have a suppressive effect on a rise in serum phosphorus concentration. […]

Molecule | Rate of uptake inhibition (%) (1 µM) [1] | inhibition in vivo at 0.1 % in feed [2] [%]
C[C@]12CCCN1N(Cc1ccc(C#CCCCC(=O)O)c(F)c1F)C(=O)C(C(=O)Nc1ccc(C(F)(F)F)cc1-c1cc(C(F)(F)F)ncn1)=C2O [Example 129, 6-[4-[[(4aR)-4-Hydroxy-4a-methyl-2-oxo-3-[[4-(trifluoromethyl)-2-[6-(trifluoromethyl)pyrimidin-4-yl]phenyl]carbamoyl]-6,7-dihydro-5H-pyrrolo[1,2-b]pyridazin-1-yl]methyl]-2,3-difluorophenyl]hex-5-ynoic acid] | 63 | 17
C[C@]12CCCN1N(Cc1ccc(C#CCN3CCOCC3)c(F)c1F)C(=O)C(C(=O)Nc1ccc(C(F)(F)F)cc1-c1ccc(C(F)(F)F)nc1)=C2O [Example 140, (4aR)-1-[[2,3-Difluoro-4-(3-morpholin-4-ylprop-1-ynyl)phenyl]methyl]-4-hydroxy-4a-methyl-2-oxo-N-[4-(trifluoromethyl)-2-[6-(trifluoromethyl)pyridin-3-yl]phenyl]-6,7-dihydro-5H-pyrrolo[1,2-b]pyridazine-3-carboxamide] | 77 | 39
C[C@]12CCCN1N(Cc1ccc(OCCCOC[C@H](O)CO)c(F)c1F)C(=O)C(C(=O)Nc1ccc(C(F)(F)F)cc1-c1ccc(C(F)(F)F)nc1)=C2O [Example 147, (4aR)-1-[[4-[3-[(2R)-2,3-Dihydroxypropoxy]propoxy]-2,3-difluorophenyl]methyl]-4-hydroxy-4a-methyl-2-oxo-N-[4-(trifluoromethyl)-2-[6-(trifluoromethyl)pyridin-3-yl]phenyl]-6,7-dihydro-5H-pyrrolo[1,2-b]pyridazine-3-carboxamide] | 57 | 35
C[C@]12CCCN1N(Cc1ccc(OCCCCOC[C@H](O)CO)c(F)c1F)C(=O)C(C(=O)Nc1ccc(C(F)(F)F)cc1-c1cc(C(F)(F)F)ncn1)=C2O [Example 152, (4aR)-1-[[4-[4-[(2R)-2,3-Dihydroxypropoxy]butoxy]-2,3-difluorophenyl]methyl]-4-hydroxy-4a-methyl-2-oxo-N-[4-(trifluoromethyl)-2-[6-(trifluoromethyl)pyrimidin-4-yl]phenyl]-6,7-dihydro-5H-pyrrolo[1,2-b]pyridazine-3-carboxamide] | 54 | 26
C[C@]12CCCN1N(Cc1ccc(OCCCCCCOC[C@H](O)CO)c(F)c1F)C(=O)C(C(=O)Nc1cnc(C(F)(F)F)nc1-c1ccc(C(F)(F)F)nc1)=C2O [Example 156, (4aR)-1-[[4-[6-[(2R)-2,3-Dihydroxypropoxy]hexoxy]-2,3-difluorophenyl]methyl]-4-hydroxy-4a-methyl-2-oxo-N-[2-(trifluoromethyl)-4-[6-(trifluoromethyl)pyridin-3-yl]pyrimidin-5-yl]-6,7-dihydro-5H-pyrrolo[1,2-b]pyridazine-3-carboxamide] | 59 | 21
C[C@]12CCCN1N(Cc1ccc(OCCN3CCOCC3)c(F)c1F)C(=O)C(C(=O)Nc1ccc(C(F)(F)F)cc1-c1cc(C(F)(F)F)ncn1)=C2O [Example 157, (4aR)-1-[[2,3-Difluoro-4-(2-morpholin-4-ylethoxy)phenyl]methyl]-4-hydroxy-4a-methyl-2-oxo-N-[4-(trifluoromethyl)-2-[6-(trifluoromethyl)pyrimidin-4-yl]phenyl]-6,7-dihydro-5H-pyrrolo[1,2-b]pyridazine-3-carboxamide] | 89 | 30
C[C@]12CCCN1N(Cc1ccc(CN3CCOCC3)c(F)c1F)C(=O)C(C(=O)Nc1ccc(C(F)(F)F)cc1-c1ccc(C(F)(F)F)nc1)=C2O.Cl [Example 164, (4aR)-1-[[2,3-Difluoro-4-(morpholin-4-ylmethyl)phenyl]methyl]-4-hydroxy-4a-methyl-2-oxo-N-[4-(trifluoromethyl)-2-[6-(trifluoromethyl)pyridin-3-yl]phenyl]-6,7-dihydro-5H-pyrrolo[1,2-b]pyridazine-3-carboxamide; hydrochloride] | 64 | 14
C[C@]12CCCN1N(Cc1cccc(Cl)c1F)C(=O)C(C(=O)Nc1cc(F)c(Br)c(F)c1)=C2O [Example 196, (4aR)-N-(4-Bromo-3,5-difluorophenyl)-1-[(3-chloro-2-fluorophenyl)methyl]-4-hydroxy-4a-methyl-2-oxo-6,7-dihydro-5H-pyrrolo[1,2-b]pyridazine-3-carboxamide] | 90 | 35
CN1[C@@H](C(C)(C)C)C(O)=C(C(=O)Nc2ccc(C(F)(F)F)cc2-c2cc(C(F)(F)F)ncn2)C(=O)N1Cc1ccc(OCCN2CCOCC2)c(F)c1F [Example 264, (3S)-3-tert-Butyl-1-[[2,3-difluoro-4-(2-morpholin-4-ylethoxy)phenyl]methyl]-4-hydroxy-2-methyl-6-oxo-N-[4-(trifluoromethyl)-2-[6-(trifluoromethyl)pyrimidin-4-yl]phenyl]-3H-pyridazine-5-carboxamide] | 48 | 15
CN1[C@@H](C(C)(C)C)C(O)=C(C(=O)Nc2ccc(Cl)cc2-c2ccc(C(F)(F)F)nc2)C(=O)N1Cc1ccc(OCCN2CCOCC2)c(F)c1F [Example 267, (3S)-3-tert-Butyl-N-[4-chloro-2-[6-(trifluoromethyl)pyridin-3-yl]phenyl]-1-[[2,3-difluoro-4-(2-morpholin-4-ylethoxy)phenyl]methyl]-4-hydroxy-2-methyl-6-oxo-3H-pyridazine-5-carboxamide] | 71 | 18
CSc1ccc(-c2cc(Cl)ccc2NC(=O)C2=C(O)[C@H](C(C)(C)C)N(C)N(Cc3ccc(OCCN4CCOCC4)c(F)c3F)C2=O)cn1 [Example 269, (3S)-3-tert-Butyl-N-[4-chloro-2-(6-methylsulfanylpyridin-3-yl)phenyl]-1-[[2,3-difluoro-4-(2-morpholin-4-ylethoxy)phenyl]methyl]-4-hydroxy-2-methyl-6-oxo-3H-pyridazine-5-carboxamide] | 80 | 15
Cc1c(C#N)ncnc1-c1cc(C(F)(F)F)ccc1NC(=O)C1=C(O)[C@H](C(C)(C)C)N(C)N(Cc2ccc(OCCN3CCOCC3)c(F)c2F)C1=O [Example 270, (3S)-3-tert-Butyl-N-[2-(6-cyano-5-methylpyrimidin-4-yl)-4-(trifluoromethyl)phenyl]-1-[[2,3-difluoro-4-(2-morpholin-4-ylethoxy)phenyl]methyl]-4-hydroxy-2-methyl-6-oxo-3H-pyridazine-5-carboxamide] | 75 | 20
CN1N(Cc2ccc(OCCN3CCOCC3)c(F)c2F)C(=O)C(C(=O)Nc2ccc(C(F)(F)F)cc2-c2cc(C(F)(F)F)ncn2)=C(O)C12CCC2 [Example 317, 6-[[2,3-Difluoro-4-(2-morpholin-4-ylethoxy)phenyl]methyl]-9-hydroxy-5-methyl-7-oxo-N-[4-(trifluoromethyl)-2-[6-(trifluoromethyl)pyrimidin-4-yl]phenyl]-5,6-diazaspiro[3.5]non-8-ene-8-carboxamide] | 57 | 22
CN1N(Cc2ccc(OCCCCC(=O)O)c(F)c2F)C(=O)C(C(=O)Nc2ccc(C(F)(F)F)cc2-c2cc(C(F)(F)F)ncn2)=C(O)C12CCCC2 [Example 333, 5-[2,3-Difluoro-4-[[10-hydroxy-6-methyl-8-oxo-9-[[4-(trifluoromethyl)-2-[6-(trifluoromethyl)pyrimidin-4-yl]phenyl]carbamoyl]-6,7-diazaspiro[4.5]dec-9-en-7-yl]methyl]phenoxy]pentanoic acid] | 29 | 8
COC[C@@H]1CCCN1CCOc1ccc(CN2C(=O)C(C(=O)Nc3ccc(C(F)(F)F)cc3-c3cc(C(F)(F)F)ncn3)=C(O)C3(CCC3)N2C)c(F)c1F [Example 345, 6-[[2,3-Difluoro-4-[2-[(2S)-2-(methoxymethyl)pyrrolidin-1-yl]ethoxy]phenyl]methyl]-9-hydroxy-5-methyl-7-oxo-N-[4-(trifluoromethyl)-2-[6-(trifluoromethyl)pyrimidin-4-yl]phenyl]-5,6-diazaspiro[3.5]non-8-ene-8-carboxamide] | 73 | 19
(4aS,5S,8R)-1-(3-Fluorobenzyl)-4-hydroxy-N-(5-methyl-2-(trifluoromethyl)furan-3-yl)-2-oxo-2,4a,5,6,7,8-hexahydro-1H-5,8-methanopyrido[1,2-b]pyridazine-3-carboxamide [Example 20] | 21 | 
